Experimental findings from patent US20210393520A1, “TREATMENT OF GRAM-NEGATIVE FOLLICULITIS OR AN INFLAMMATION THEREOF WITH BESIFLOXACIN” (VYOME THERAPEUTICS LIMITED, priority 2018, published 2021) are described below.

Molecules are shown by their SMILES. Values after ≈ are worked out from the molar mass of the structure shown. Where only a bound is given, the exact number is not on record here.

One assay concerns Enterobacter sp. 2. As to the kind of experiment: MIC, micro broth dilution in Muller Hinton broth (CLSI), Table 1B. The format is cell-based. The note with it: read-out: Minimum Inhibitory Concentration. The method, then:
(§1) Besifloxacin HCL was tested against ampicillin and cefotaxime (3rd generation cephalosporin) susceptible and resistant gram-negative bacterial strains involved in GNF (gram negative folliculitis) by broth dilution method as per the Clinical & Laboratory Standards Institutes (CLSI) guidelines. MIC assay was performed in 96 well plates by micro broth dilution method, in 96 well plates, all the wells were added with 100 μl of sterilized Muller Hinton broth No: 2 cation broth (HiMedia, India). The initial stock of test compounds (1 mg/ml) were prepared in dimethyl sulfoxide (DMSO) and further dilutions were made in culture broth to get the desirable concentration. Then 100 μl of broth containing test compounds were initially added to the first column's wells and then serial dilution was performed up to well of 10th column. Wells of 11th and 12th column served as a positive and negative control respectively. Finally, 100 μl of inoculum (0.5 McFarland equal bacterial suspension was 100 times diluted in culture broth) was added to all the wells. Plates were incubated at 37° C. for 18-24 hrs. After incubation, MIC of each test compound was determined by observing the lowest concentration of test compound that has no visual growth compared to growth control. Minimum inhibitory concentration of besifloxacin, ampicillin and cefotaxime against gram negative bacterial strains were shown in Table 1.

A further assay deals with Pseudomonas sp. 537. Described as above. The conditions noted are these: read-out: Minimum Inhibitory Concentration. Type of assay: cell-based. The method, then:
as §1

For the next assay, the system named is Escherichia coli 591. Described as above. Type of assay: cell-based. The note with it: read-out: Minimum Inhibitory Concentration. The protocol:
as §1

The next assay has as its system Enterobacter sp. 1. The description is as above. Type of assay: cell-based. The conditions noted are these: read-out: Minimum Inhibitory Concentration. The protocol: as §1
In a further assay the test system is Enterobacter sp. 523. The assay is described as above. The note with it: read-out: Minimum Inhibitory Concentration. The format is cell-based. The protocol: as §1
The subject of another assay is Klebsiella sp. 498. Described as above. The format is cell-based. The conditions noted are these: read-out: Minimum Inhibitory Concentration. The method, then:
as §1

Another assay deals with Enterobacter sp. 532. Described as above. Type of assay: cell-based. The conditions noted are these: read-out: Minimum Inhibitory Concentration. The protocol:
as §1

Another assay concerns Pseudomonas sp. 556. The assay is described as above. Type of assay: cell-based. The conditions noted are these: read-out: Minimum Inhibitory Concentration. The method, then:
as §1

A further assay has as its system Escherichia coli 592. The description is as above. The format is cell-based. The conditions noted are these: read-out: Minimum Inhibitory Concentration. The method, then: as §1
For the next assay, the system named is Acinetobacter sp. 488. The description is as above. The format is cell-based. The conditions noted are these: read-out: Minimum Inhibitory Concentration. The protocol: as §1
The subject of a further assay is Klebsiella sp. 512. Described as above. Type of assay: cell-based. The note with it: read-out: Minimum Inhibitory Concentration. The protocol:
as §1

In a further assay the test system is Blastococcus sp. S21A-2. Type of assay: cell-based. The note with it: Blastococcus sp. S21A-2, isolated from acne lesions. The protocol:
(§2) MIC of besifloxacin and other antibiotics molecules were determined by micro broth dilution method as per the Clinical and Laboratory Standards Institute (CLSI) guideline. MIC assay is the determinant of the inherent anti-microbial potency of a particular molecule. For preparing inoculum, bacterial strains were cultured in Brain Heart Infusion Agar (BHIA) at 37° C. for 24 hours. […] For bacterial inoculum, bacterial culture turbidity was adjusted to 0.1 OD at 600 nm in UV-Visual spectrophotometer (approximately 1.5×10^8 cells/ml) and further diluted (100 times with sterile BHI broth). Diluted bacterial suspension (100 μl) was added to each well except sterility control wells (column 12 of 96 well plate). Column 11 of 96 well plate was used as growth control and vehicle control. The plates were incubated at 37° C. for 24 h. The MIC of the test compounds were determined by observing the lowest concentration of test compound that prevented the visual bacterial growth.
(§3) Different skin resident bacteria were isolated from acne lesions of moderate to severe acne patients.

In another assay the test system is P. acnes V3-1. As to the kind of experiment: MIC against bacteria isolated from acne lesions, Table 2. The format is cell-based, Propionibacterium acnes. The note with it: Cutibacterium acnes, V31; P. acnes V3-1, isolated from acne lesions; read-out: Minimum Inhibitory Concentration. The method, then: as §2, §3
Another assay relates to Microbacterium sp. S20-2. Described as above. Type of assay: cell-based. The conditions noted are these: Microbacterium sp. S20-2, isolated from acne lesions. The protocol: as §2, §3
For a further assay, the system named is S. epidermidis S1-1. The description is as above. The format is cell-based. The note with it: Staphylococcus epidermidis, S11; S. epidermidis S1-1, isolated from acne lesions; read-out: Minimum Inhibitory Concentration. The protocol:
as §2, §3

The subject of another assay is P. avidum S3-1. The description is as above. Type of assay: cell-based. The note with it: Cutibacterium avidum, S31; P. avidum S3-1, isolated from acne lesions; read-out: Minimum Inhibitory Concentration. The method, then: as §2, §3
Assay [1] relates to Enterobacter aerogenes M2-1. The assay is described as above. The conditions noted are these: Klebsiella aerogenes, M21; Enterobacter aerogenes M2-1, isolated from acne lesions; read-out: Minimum Inhibitory Concentration. Type of assay: cell-based. The protocol:
as §2, §3

The test system of assay [2] is Staphylococcus haemolyticus M1-1. The assay is described as above. The format is cell-based. The conditions noted are these: M11; Staphylococcus haemolyticus M1-1, isolated from acne lesions; read-out: Minimum Inhibitory Concentration. The protocol:
as §2, §3

Assay [3] has as its system Dermatobacter hominis S11-2. The assay is described as above. The format is cell-based. The conditions noted are these: S112; Dermatobacter hominis S11-2, isolated from acne lesions; read-out: Minimum Inhibitory Concentration. The method, then:
as §2, §3

In assay [4] the test system is Bacillus megaterium M1-2. The description is as above. The format is cell-based. The conditions noted are these: Priestia megaterium, M12., read-out: Minimum Inhibitory Concentration. The protocol:
as §2, §3

Another assay deals with K. pneumoniae S6-1. The assay is described as above. Type of assay: cell-based. The note with it: Klebsiella pneumoniae, S61; K. pneumoniae S6-1, isolated from acne lesions; read-out: Minimum Inhibitory Concentration. The method, then:
as §2, §3

The next assay deals with Kocuria sp. S18-1. Described as above. Type of assay: cell-based. The note with it: SP.S181; Kocuria sp. S18-1, isolated from acne lesions; read-out: Minimum Inhibitory Concentration. The protocol: as §2, §3

Consider `CC1(C)S[C@@H]2[C@H](NC(=O)[C@H](N)c3ccccc3)C(=O)N2[C@H]1C(=O)O` [Ampicillin], for which the MIC is 2 µg/mL (≈ 5.72 µM) in the assay on Enterobacter sp. 2; more than 128 µg/mL with Pseudomonas sp. 537; 4 µg/mL (≈ 11.4 µM) in the assay with Escherichia coli 591; more than 128 µg/mL with Enterobacter sp. 1; more than 128 µg/mL with Enterobacter sp. 523; more than 128 µg/mL in the assay on Klebsiella sp. 498. For the same compound, the MIC in the assay on Enterobacter sp. 532 is more than 128 µg/mL; in the assay with Pseudomonas sp. 556, more than 128 µg/mL; with Escherichia coli 592, more than 128 µg/mL; in the assay with Acinetobacter sp. 488 it was more than 128 µg/mL; in the assay on Klebsiella sp. 512, 32 µg/mL (≈ 91.6 µM).

Consider `CO/N=C(\C(=O)N[C@@H]1C(=O)N2C(C(=O)O)=C(COC(C)=O)CS[C@H]12)c1csc(N)n1` [Cefotaxime], for which the MIC in the assay with Enterobacter sp. 2 was 0.5 µg/mL (≈ 1.1 µM); in the assay with Pseudomonas sp. 537 it was 16 µg/mL (≈ 35.1 µM); with Escherichia coli 591 it was less than 0.25 µg/mL; in the assay on Enterobacter sp. 1, 128 µg/mL (≈ 281 µM); in the assay with Enterobacter sp. 523, 128 µg/mL (≈ 281 µM); in the assay on Klebsiella sp. 498 it was 64 to 128 µg/mL (≈ 141 to 281 µM). Further, the MIC was 64 µg/mL (≈ 141 µM) in the assay on Enterobacter sp. 532; 4 µg/mL (≈ 8.78 µM) in the assay on Pseudomonas sp. 556; 128 µg/mL (≈ 281 µM) in the assay with Escherichia coli 592; more than 128 µg/mL with Acinetobacter sp. 488; less than 0.25 µg/mL with Klebsiella sp. 512.

For the compound `CC[C@H]1OC(=O)[C@H](C)[C@@H](O[C@H]2C[C@@](C)(OC)[C@@H](O)[C@H](C)O2)[C@H](C)[C@@H](O[C@@H]2O[C@H](C)C[C@H](N(C)C)[C@H]2O)[C@](C)(O)C[C@@H](C)C(=O)[C@H](C)[C@@H](O)[C@]1(C)O` [Erythromycin], the “Minimum Inhibitory Concentration” value is less than 0.01 µg/mL with Blastococcus sp. S21A-2 and 0.25 µg/mL with Microbacterium sp. S20-2. Besides, the MIC with P. acnes V3-1 is more than 150 µg/mL; with S. epidermidis S1-1, more than 4 µg/mL; in the assay with P. avidum S3-1, 0.06 µg/mL (≈ 0.0818 µM); in assay [1], more than 4 µg/mL; in assay [2] it was 0.25 µg/mL (≈ 0.341 µM); in [3], more than 4 µg/mL. Besides, the MIC in assay [4] was 0.25 µg/mL (≈ 0.341 µM); in the assay on K. pneumoniae S6-1, more than 4 µg/mL; with Kocuria sp. S18-1, more than 4 µg/mL.

Take `CN(C)[C@@H]1C(O)=C(C(N)=O)C(=O)[C@@]2(O)C(O)=C3C(=O)c4c(O)cccc4[C@@](C)(O)[C@H]3C[C@@H]12` [Tetracycline]: the “Minimum Inhibitory Concentration” value in the assay with Blastococcus sp. S21A-2 was 0.5 µg/mL; with Microbacterium sp. S20-2 it was 2 µg/mL. Moreover, the MIC was 0.3 µg/mL (≈ 0.675 µM) in the assay on P. acnes V3-1; more than 4 µg/mL in the assay on S. epidermidis S1-1; 1 µg/mL (≈ 2.25 µM) in the assay with P. avidum S3-1; 2 µg/mL (≈ 4.5 µM) in assay [1]; 0.25 µg/mL (≈ 0.563 µM) in assay [2]; more than 4 µg/mL in assay [3]. The results for the MIC (in [4]; with K. pneumoniae S6-1; in the assay with Kocuria sp. S18-1) were 0.06 µg/mL (≈ 0.135 µM), more than 4 µg/mL and 1 µg/mL (≈ 2.25 µM), respectively.
